# Earlier results in patent US20210400979A1, “ANTI-VIRAL FACE MASK AND FILTER MATERIALS” (priority 2020, published 2021).
# What was measured:
# [1] = system: RTCs of SARS-CoV (RNA-synthesizing activity); details: RTCs isolated from SARS-CoV infected cells, various Zn^2+ concentrations (FIG. 13A)
Molecule,RNA-synthesizing activity of the RTCs of the virus [1],water solubility (in words)
[Zn+2] [Zn^2+],efficiently inhibits,–
zinc picolinate,–,moderately water soluble
